biological target: USP7 (Homo sapiens, UniProt Q93009); test: USP7 inhibitory potency (IC50); format: biochemical
Method: Activity for compounds described herein is provided in Table 2, wherein potency levels are provided as follows: (Potency: USP7 IC50: A<0.01 μM; B=0.01-0.1 μM; C=>0.1 μM.

Sequence of USP7 (Q93009 whole entry): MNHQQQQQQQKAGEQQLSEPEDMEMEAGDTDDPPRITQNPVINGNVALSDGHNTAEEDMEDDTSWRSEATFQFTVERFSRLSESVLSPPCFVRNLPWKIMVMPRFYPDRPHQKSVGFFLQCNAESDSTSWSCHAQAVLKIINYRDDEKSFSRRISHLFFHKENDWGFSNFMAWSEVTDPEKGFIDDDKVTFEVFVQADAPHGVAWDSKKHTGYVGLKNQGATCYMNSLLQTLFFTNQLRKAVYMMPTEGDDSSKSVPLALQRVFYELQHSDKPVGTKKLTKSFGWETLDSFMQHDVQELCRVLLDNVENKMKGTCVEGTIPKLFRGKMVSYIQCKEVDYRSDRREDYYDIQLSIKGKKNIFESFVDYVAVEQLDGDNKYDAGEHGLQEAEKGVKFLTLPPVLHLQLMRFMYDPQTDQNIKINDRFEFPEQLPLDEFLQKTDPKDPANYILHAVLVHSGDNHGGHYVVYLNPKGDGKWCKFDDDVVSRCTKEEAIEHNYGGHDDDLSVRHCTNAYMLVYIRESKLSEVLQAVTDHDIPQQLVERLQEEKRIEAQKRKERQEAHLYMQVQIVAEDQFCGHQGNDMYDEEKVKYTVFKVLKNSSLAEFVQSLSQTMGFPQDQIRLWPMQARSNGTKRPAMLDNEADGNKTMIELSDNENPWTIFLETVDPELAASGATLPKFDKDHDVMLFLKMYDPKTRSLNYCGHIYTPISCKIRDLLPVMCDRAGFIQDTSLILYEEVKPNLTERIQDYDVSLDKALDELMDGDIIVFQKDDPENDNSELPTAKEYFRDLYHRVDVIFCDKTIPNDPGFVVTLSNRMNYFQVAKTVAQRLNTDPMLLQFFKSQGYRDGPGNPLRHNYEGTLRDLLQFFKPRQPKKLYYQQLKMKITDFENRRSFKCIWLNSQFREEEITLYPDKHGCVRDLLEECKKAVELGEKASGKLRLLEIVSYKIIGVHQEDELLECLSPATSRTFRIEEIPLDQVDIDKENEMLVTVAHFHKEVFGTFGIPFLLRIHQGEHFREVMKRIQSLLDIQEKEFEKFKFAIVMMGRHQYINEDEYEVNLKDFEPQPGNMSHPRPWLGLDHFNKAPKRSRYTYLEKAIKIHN

Row | Structure (SMILES) | IC50 [nM]
1 | Cc1cc(Cl)cc(-c2ncnc3cc(CN4C(=O)C5C(C4=O)C5(C)C)sc23)c1C[C@@H]1CN(C(=O)C(F)(F)F)CCO1 (stereo partly drawn) [Example 201, 3-((4-(5-chloro-3-methyl-2-(((R)-4-(2,2,2-trifluoroacetyl)morpholin-2-yl)methyl)phenyl)thieno[3,2-d]pyrimidin-6-yl)methyl)-6,6-dimethyl-3-azabicyclo[3.1.0]hexane-2,4-dione] | 10 to 100
2 | Cc1cc(Cl)cc(-c2ccnc3cc(CN4C(=O)C5CC5C4=O)sc23)c1CC1COCCN1 (stereo not shown) [Example 115, 3-((7-(5-chloro-3-methyl-2-(morpholin-3-ylmethyl)phenyl)thieno[3,2-b]pyridin-2-yl)methyl)-3-azabicyclo[3.1.0]hexane-2,4-dione] | > 100
3 | CC1(C)C2C(=O)N(Cc3cc4nccc(-c5cc(Cl)cc(Cl)c5CC5CNCCO5)c4s3)C(=O)C21 (stereo not shown) [Example 140, 3-((7-(3,5-dichloro-2-(morpholin-2-ylmethyl)phenyl)thieno[3,2-b]pyridin-2-yl)methyl)-6,6-dimethyl-3-azabicyclo[3.1.0]hexane-2,4-dione] | < 10
4 | Cc1cc(Cl)cc(-c2ccnc3c(F)c(CN4C(=O)C5CC5C4=O)sc23)c1C[C@@H]1CNCCO1 (stereo partly drawn) [Example 125, 3-((7-(5-chloro-3-methyl-2-(((R)-morpholin-2-yl)methyl)phenyl)-3-fluorothieno[3,2-b]pyridin-2-yl)methyl)-3-azabicyclo[3.1.0]hexane-2,4-dione] | < 10
5 | Cc1cc(Cl)cc(-c2ncnc3cc(CN4C(=O)C5CC5C4=O)sc23)c1CC1CNCCO1 (stereo not shown) [Example 152, 3-((4-(5-chloro-3-methyl-2-(morpholin-2-ylmethyl)phenyl)thieno[3,2-d]pyrimidin-6-yl)methyl)-3-azabicyclo[3.1.0]hexane-2,4-dione] | < 10
6 | Cc1cc(Cl)cc(-c2ncnc3cc(CN4C(=O)CCC4C)sc23)c1CN1[C@@H](C)CNC[C@@H]1C (stereo partly drawn) [Example 91, 1-((4-(5-chloro-2-(((2S,6S)-2,6-dimethylpiperazin-1-yl)methyl)-3-methylphenyl)thieno[3,2-d]pyrimidin-6-yl)methyl)-5-methylpyrrolidin-2-one] | > 100
7 | Cc1cc(Cl)cc(-c2ncnc3cc(CN4C(=O)COC4=O)sc23)c1CN1C[C@@H](C)NC[C@@H]1C [Example 76, 3-((4-(5-chloro-2-(((2S,5R)-2,5-dimethylpiperazin-1-yl)methyl)-3-methylphenyl)thieno[3,2-d]pyrimidin-6-yl)methyl)oxazolidine-2,4-dione] | 10 to 100
8 | C[C@@H]1CN(Cc2c(Cl)cc(Cl)cc2-c2ccnc3cc(CN4C(=O)C5CC5C4=O)sc23)[C@@H](C)CN1 (stereo partly drawn) [Example 43, 3-((7-(3,5-dichloro-2-(((2S,5R)-2,5-dimethylpiperazin-1-yl)methyl)phenyl)thieno[3,2-b]pyridin-2-yl)methyl)-3-azabicyclo[3.1.0]hexane-2,4-dione] | < 10
9 | Cc1cc(Cl)cc(-c2ncnc3cc(Cn4cccc4C#N)sc23)c1C[C@@H]1CNCC(C)(C)O1 [Example 239, (R)-1-((4-(5-chloro-2-((6,6-dimethylmorpholin-2-yl)methyl)-3-methylphenyl)thieno[3,2-d]pyrimidin-6-yl)methyl)-1H-pyrrole-2-carbonitrile] | > 100
10 | Cc1cc(Cl)cc(-c2ncnc3cc(CN4C(=O)C5CCCN5C4=O)sc23)c1CN1[C@@H](C)CNC[C@@H]1C (stereo partly drawn) [Example 86, 2-((4-(5-chloro-2-(((2S,6S)-2,6-dimethylpiperazin-1-yl)methyl)-3-methylphenyl)thieno[3,2-d]pyrimidin-6-yl)methyl)tetrahydro-1H-pyrrolo[1,2-c]imidazole-1,3(2H)-dione] | < 10
11 | Cc1cc(Cl)cc(-c2ncnc3cc(CN4C(=O)CNC4=O)sc23)c1C[C@@H]1CNCCO1 [Example 243, (R)-3-((4-(5-chloro-3-methyl-2-(morpholin-2-ylmethyl)phenyl)thieno[3,2-d]pyrimidin-6-yl)methyl)imidazolidine-2,4-dione] | < 10
12 | Cc1cc(Cl)cc(-c2ncnc3cc(CN4C(=O)CCC4=O)sc23)c1C[C@H]1CNCC(C)(C)O1 [Example 212, (S)-1-((4-(5-chloro-2-((6,6-dimethylmorpholin-2-yl)methyl)-3-methylphenyl)thieno[3,2-d]pyrimidin-6-yl)methyl)pyrrolidine-2,5-dione] | 10 to 100
13 | Cc1cc(Cl)cc(-c2ncnc3cc(CN4C(=O)CCN(CC(F)F)C4=O)sc23)c1C[C@@H]1CNCC(C)(C)O1 [Example 240, (R)-3-((4-(5-chloro-2-((6,6-dimethylmorpholin-2-yl)methyl)-3-methylphenyl)thieno[3,2-d]pyrimidin-6-yl)methyl)-1-(2,2-difluoroethyl)dihydropyrimidine-2,4(1H,3H)-dione] | < 10
14 | Cc1cc(Cl)cc(-c2ncnc3cc(CN4C(=O)C5CC5C4=O)sc23)c1CC1CNCC(C)(C)O1 (stereo not shown) [Example 154, 3-((4-(5-chloro-2-((6,6-dimethylmorpholin-2-yl)methyl)-3-methylphenyl)thieno[3,2-d]pyrimidin-6-yl)methyl)-3-azabicyclo[3.1.0]hexane-2,4-dione] | < 10
15 | Cc1cc(Cl)cc(-c2ncnc3cc(Cn4c(=O)ccn(C5CCC5)c4=O)sc23)c1CC1CNCCO1 (stereo not shown) [Example 166, 3-((4-(5-chloro-3-methyl-2-(morpholin-2-ylmethyl)phenyl)thieno[3,2-d]pyrimidin-6-yl)methyl)-1-cyclobutylpyrimidine-2,4(1H,3H)-dione] | < 10
16 | Cc1cc(Cl)cc(-c2ccnc3cc(Cn4c(=O)ccn(C5CCC5)c4=O)sc23)c1CC1CNCCO1 (stereo not shown) [Example 111, 3-((7-(5-chloro-3-methyl-2-(morpholin-2-ylmethyl)phenyl)thieno[3,2-b]pyridin-2-yl)methyl)-1-cyclobutylpyrimidine-2,4(1H,3H)-dione] | < 10
17 | CC1(C)CNCC(Cc2c(Cl)cc(Cl)cc2-c2ccnc3cc(CN4C(=O)C5CC5C4=O)sc23)O1 (stereo not shown) [Example 139, 3-((7-(3,5-dichloro-2-((6,6-dimethylmorpholin-2-yl)methyl)phenyl)thieno[3,2-b]pyridin-2-yl)methyl)-3-azabicyclo[3.1.0]hexane-2,4-dione] | < 10

The remaining lines, values ahead:

Row | IC50 [nM] | Structure (SMILES)
18 | < 10 | Cc1cc(Cl)cc(-c2ncnc3cc(Cn4c(=O)ccn(CC(F)(F)F)c4=O)sc23)c1CN1C[C@@H](C)NC[C@@H]1C [Example 73, 3-((4-(5-chloro-2-(((2S,5R)-2,5-dimethylpiperazin-1-yl)methyl)-3-methylphenyl)thieno[3,2-d]pyrimidin-6-yl)methyl)-1-(2,2,2-trifluoroethyl)pyrimidine-2,4(1H,3H)-dione]
19 | < 10 | CC1(C)CNCC(Cc2c(-c3ncnc4cc(CN5C(=O)C6CC6C5=O)sc34)cc(Cl)cc2C(F)F)O1 (stereo not shown) [Example 250, 3-((4-(5-chloro-3-(difluoromethyl)-2-((6,6-dimethylmorpholin-2-yl)methyl)phenyl)thieno[3,2-d]pyrimidin-6-yl)methyl)-3-azabicyclo[3.1.0]hexane-2,4-dione]
20 | < 10 | Cc1cc(Cl)cc(-c2ncnc3cc(CN4C(=O)CCC4=O)sc23)c1CN1[C@@H](C)CNC[C@@H]1C [Example 77, 1-((4-(5-chloro-2-(((2S,6S)-2,6-dimethylpiperazin-1-yl)methyl)-3-methylphenyl)thieno[3,2-d]pyrimidin-6-yl)methyl)pyrrolidine-2,5-dione]
21 | < 10 | Cc1cc(Cl)cc(-c2ncnc3cc(CN4C(=O)CCN(CCO)C4=O)sc23)c1C[C@@H]1CNCC(C)(C)O1 [Example 271, (R)-3-((4-(5-chloro-2-((6,6-dimethylmorpholin-2-yl)methyl)-3-methylphenyl)thieno[3,2-d]pyrimidin-6-yl)methyl)-1-(2-hydroxyethyl)dihydropyrimidine-2,4(1H,3H)-dione]
22 | < 10 | Cc1cc(Cl)cc(-c2ccnc3cc(CN4C(=O)C5CC5C4=O)sc23)c1CN1C[C@@H](C)NC[C@H]1C (stereo partly drawn) [Example 34, 3-((7-(5-chloro-2-(((2R,5R)-2,5-dimethylpiperazin-1-yl)methyl)-3-methylphenyl)thieno[3,2-b]pyridin-2-yl)methyl)-3-azabicyclo[3.1.0]hexane-2,4-dione]
23 | < 10 | Cc1cc(Cl)cc(-c2ccnc3cc(CN4C(=O)CCC4=O)sc23)c1CC1CNCC2(CCC2)O1 (stereo not shown) [Example 143, 1-((7-(2-((5-oxa-8-azaspiro[3.5]nonan-6-yl)methyl)-5-chloro-3-methylphenyl)thieno[3,2-b]pyridin-2-yl)methyl)pyrrolidine-2,5-dione]
24 | < 10 | Cc1cc(Cl)cc(-c2ncnc3cc(CN4C(=O)COC4=O)sc23)c1C[C@@H]1CNCC(C)(C)O1 [Example 234, (R)-3-((4-(5-chloro-2-((6,6-dimethylmorpholin-2-yl)methyl)-3-methylphenyl)thieno[3,2-d]pyrimidin-6-yl)methyl)oxazolidine-2,4-dione]
25 | < 10 | Cc1cc(Cl)cc(-c2ncnc3cc(CN4C(=O)CCN(C)C4=O)sc23)c1CC1CNCC2(COC2)O1 (stereo not shown) [Example 238, 3-((4-(2-((2,5-dioxa-8-azaspiro[3.5]nonan-6-yl)methyl)-5-chloro-3-methylphenyl)thieno[3,2-d]pyrimidin-6-yl)methyl)-1-methyldihydropyrimidine-2,4(1H,3H)-dione]
26 | < 10 | Cc1cc(Cl)cc(-c2ncnc3cc(CN4C(=O)CCC4C(F)(F)F)sc23)c1CC1CNCC(C)(C)O1 (stereo not shown) [Example 194, 1-((4-(5-chloro-2-((6,6-dimethylmorpholin-2-yl)methyl)-3-methylphenyl)thieno[3,2-d]pyrimidin-6-yl)methyl)-5-(trifluoromethyl)pyrrolidin-2-one]
27 | < 10 | Cc1cc(Cl)cc(-c2ccnc3cc(CN4C(=O)C5CC5C4=O)sc23)c1C[C@H]1OCCN[C@@H]1C (stereo partly drawn) [Example 104, 3-((7-(5-chloro-3-methyl-2-(((2R,3R)-3-methylmorpholin-2-yl)methyl)phenyl)thieno[3,2-b]pyridin-2-yl)methyl)-3-azabicyclo[3.1.0]hexane-2,4-dione]
28 | < 10 | Cc1cc(Cl)cc(-c2ncnc3cc(CN4C(=O)CCNC4=O)sc23)c1C[C@@H]1CNCCO1 [Example 247, (R)-3-((4-(5-chloro-3-methyl-2-(morpholin-2-ylmethyl)phenyl)thieno[3,2-d]pyrimidin-6-yl)methyl)dihydropyrimidine-2,4(1H,3H)-dione]

— patent US11084829B2, “Ubiquitin-specific-processing protease 7 (USP7) modulators and uses thereof” (RAPT THERAPEUTICS, INC., priority 2018, dated 2021)
